Data: patent publication US9334263B2, “Compositions useful for treating disorders related to kit” (BLUEPRINT MEDICINES CORPORATION, priority 2013, dated 2016)

Legend:
wild type Kit = biological target: T1, wild type Kit (Homo sapiens, UniProt P10721); assay: Kit wild type assay at Km (Caliper electrophoretic mobility shift); type: biochemical; conditions: 400 uM ATP, 25 C, 90 minutes; read-out: WT KIT
T1 construct: purchased Carna Bioscience 08-156
Experimental: In order to assess the activity of chemical compounds against the relevant kinase of interest, the Caliper LifeSciences electrophoretic mobility shift technology platform is used. Fluorescently labeled substrate peptide is incubated in the presence of kinase and ATP so that a […] proportion of the peptide is phosphorylated. At the end of the reaction, the mix of phosphorylated (product) and non-phosphorylated (substrate) peptides are passed through the microfluidic system of the Caliper EZ Reader 2, under an applied potential difference. The presence of the phosphate group on the product peptide provides a difference in mass and charge between those of the substrate peptide, resulting in a separation of the substrate and product pools in the sample. As the pools pass a LEDS within the instrument, these pools are detected and resolved as separate peaks. The ratio between these peaks therefore reflects the activity of the chemical matter at that concentration in that well, under those conditions.
The reaction was stopped by the addition of 70 ul of Stop buffer (100 mM HEPES pH 7.5, 0.015% Brij 35, 35 mM EDTA and 0.2% of Coating Reagent 3 (Caliper Lifesciences)). The plate was then read on a Caliper EZReader 2 (protocol settings: −1.9 psi, upstream voltage −700, downstream voltage −3000, post sample sip 35 s).

D816V Kit = biological target: T2, D816V Kit (Homo sapiens, UniProt P10721, D816V); assay: Kit D816V assay at Km (Caliper electrophoretic mobility shift); type: biochemical; conditions: 15 uM ATP, 25 C, 90 minutes
T2 construct: purchased Carna Bioscience 08-156
Outline: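 Read-out is the ratio of phosphorylated to unphosphorylated fluorescent peptide, resolved by mobility shift on a Caliper EZ Reader 2.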

[1] = biological target: T3, Kit D816V (HMC1.2 cells, Kit V560G and D816V) (Homo sapiens, UniProt P10721, D816V/V560G); assay: HMC1.2 autophosphorylation assay (AlphaLISA, phospho-Y719 c-Kit); type: cell-based; conditions: Kit autophosphorylation at tyrosine 719, 90 minutes, read-out: Cellular Activity
T3 construct: endogenous in cells; host or cells: HMC1.2 cells
Outline: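 AlphaScreen signal comes from lysed HMC1.2 cells incubated with phospho-Y719 and total c-Kit antibodies (15 nM final), acceptor beads and then streptavidin donor beads, 2 h each at room temperature. Beforehand, cells deprived of serum overnight received compound for 90 min as a 10-point series, 25 uM–95.4 pM, 0.25% DMSO.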

T3 sequence (P10721 26-976 V560G/D816V): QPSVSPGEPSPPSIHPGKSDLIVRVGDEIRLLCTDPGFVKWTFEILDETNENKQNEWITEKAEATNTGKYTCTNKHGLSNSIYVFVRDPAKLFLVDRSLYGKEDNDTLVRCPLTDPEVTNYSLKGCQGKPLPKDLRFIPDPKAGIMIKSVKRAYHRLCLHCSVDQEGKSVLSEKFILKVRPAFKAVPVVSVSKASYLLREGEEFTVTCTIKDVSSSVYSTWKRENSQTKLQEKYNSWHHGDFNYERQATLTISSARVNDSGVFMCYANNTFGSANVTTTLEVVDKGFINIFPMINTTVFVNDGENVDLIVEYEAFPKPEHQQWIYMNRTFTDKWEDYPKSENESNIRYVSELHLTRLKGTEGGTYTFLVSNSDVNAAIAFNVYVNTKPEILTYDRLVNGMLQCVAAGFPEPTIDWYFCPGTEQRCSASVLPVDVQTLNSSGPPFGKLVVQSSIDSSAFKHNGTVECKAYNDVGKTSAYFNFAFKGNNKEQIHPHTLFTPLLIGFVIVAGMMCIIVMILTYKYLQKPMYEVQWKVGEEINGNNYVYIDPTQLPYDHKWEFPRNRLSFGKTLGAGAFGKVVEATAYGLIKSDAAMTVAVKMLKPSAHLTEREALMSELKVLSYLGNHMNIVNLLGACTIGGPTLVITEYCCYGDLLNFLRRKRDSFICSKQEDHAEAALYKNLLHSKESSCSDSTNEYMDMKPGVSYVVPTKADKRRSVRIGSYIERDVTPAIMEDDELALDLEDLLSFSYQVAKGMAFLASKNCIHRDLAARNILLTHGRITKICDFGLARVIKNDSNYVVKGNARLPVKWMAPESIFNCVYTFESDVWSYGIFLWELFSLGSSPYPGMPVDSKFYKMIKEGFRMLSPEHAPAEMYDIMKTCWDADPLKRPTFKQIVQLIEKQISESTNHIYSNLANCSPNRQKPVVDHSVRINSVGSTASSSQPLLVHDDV
T2 sequence (P10721 26-976 D816V): as the sequence (P10721 26-976 V560G/D816V) above, with G535V counted along it
T1 sequence (P10721 26-976): as the sequence (P10721 26-976 V560G/D816V) above, with G535V, V791D counted along it

Compound | IC50 (wild type Kit) [nM] | IC50 (D816V Kit) [nM] | IC50 [1] [nM]
COCCN1CCc2ccc(Nc3ncnc(N4CCN(c5ncc(Cc6ccccc6)cn5)CC4)n3)cc2C1 [Compound 215] | < 10 | < 1 | 10 to 100
CS(=O)(=O)c1ccc(Nc2ncnc(N3CCN(c4ncc(Cc5ccccc5)c(O)n4)CC3)n2)cc1 [Compound 143] | 11 to 100 | 1.01 to 10 | 100 to 1000
CN(C)Cc1cccc(Nc2ncnc(N3CCN(c4ncc(Cc5ccccc5)cn4)CC3)n2)c1 [Compound 49] | 11 to 100 | < 1 | 10 to 100
Oc1ccccc1Cc1cnc(N2CCN(c3ncnc(Nc4ccc5c(c4)CNCC5)n3)CC2)nc1 [Compound 115] | < 10 | < 1 | 10 to 100
c1ccc(Cc2cnc(N3CCN(c4ncnc(Nc5ccc(N6CCOCC6)cc5)n4)CC3)nc2)cc1 [Compound 103] | 11 to 100 | 1.01 to 10 | 100 to 1000
CC(=O)NCc1cccc(Nc2ncnc(N3CCN(c4ncc(Cc5ccccc5)cn4)CC3)n2)c1 [Compound 74] | 11 to 100 | < 1 | 10 to 100
CN(C)CCn1cc(Nc2ncnc(N3CCN(c4ncc(Cc5ccccc5)cn4)CC3)n2)cn1 [Compound 60] | 11 to 100 | < 1 | 10 to 100
CN1CCO[C@@H](Cn2cc(Nc3ncnc(N4CCN(c5ncc(Cc6ccccc6)cn5)CC4)n3)cn2)C1 [Compound 180] | 11 to 100 | < 1 | 10 to 100
Cc1cc(N2CCNCC2)ccc1Nc1ncnc(N2CCN(c3ncc(Cc4ccccc4)cn3)CC2)n1 [Compound 158] | 11 to 100 | 1.01 to 10 | 100 to 1000
CN(C)[C@H]1CCN(Cc2cccc(Nc3ncnc(N4CCN(c5ncc(Cc6ccccc6)cn5)CC4)n3)c2)C1 [Compound 260] | < 10 | < 1 | 10 to 100
c1ccc(Cc2cnc(N3CCN(c4ncnc(Nc5ccc(O[C@H]6CCCNC6)cc5)n4)CC3)nc2)cc1 [Compound 162] | < 10 | < 1 | < 10
c1ccc(Cc2cnc(N3CCN(c4ncnc(Nc5cccc(CN6CCOCC6)c5)n4)CC3)nc2)cc1 [Compound 160] | 11 to 100 | 1.01 to 10 | 100 to 1000
OC[C@H]1CCCN1c1ccc(Nc2ncnc(N3CCN(c4ncc(Cc5ccccc5)cn4)CC3)n2)cc1 [Compound 167] | 100 to 1000 | 1.01 to 10 | 10 to 100
NC(=O)c1cccc(Nc2ncnc(N3CCN(c4ncc(Cc5ccccc5)cn4)CC3)n2)c1 [Compound 23] | 11 to 100 | 1.01 to 10 | 100 to 1000
CC(=O)c1cccc(Nc2ncnc(N3CCN(c4ncc(Cc5ccccc5)cn4)CC3)n2)c1 [Compound 22] | 100 to 1000 | 1.01 to 10 | 100 to 1000
CN1CCC[C@@H](Oc2ccc(Nc3ncnc(N4CCN(c5ncc(Cc6ccccc6)cn5)CC4)n3)cc2)C1 [Compound 216] | < 10 | < 1 | < 10
CN1CCC[C@H]1COc1ccc(Nc2ncnc(N3CCN(c4ncc(Cc5ccccc5)cn4)CC3)n2)cc1 [Compound 219] | < 10 | < 1 | 10 to 100
NS(=O)(=O)c1ccc(Nc2ncnc(N3CCN(c4ncc(Cc5ccccc5)cn4)CC3)n2)cc1 [Compound 96] | 11 to 100 | < 1 | 100 to 1000
CN1CCC[C@@H]1COc1ccc(Nc2ncnc(N3CCN(c4ncc(Cc5ccccc5)c(N)n4)CC3)n2)cc1 [Compound 265] | < 10 | < 1 | < 10
CP(C)(=O)c1ccc(Nc2ncnc(N3CCN(c4ncc(Nc5ccc(F)cc5)cn4)CC3)n2)cc1 [Compound 144] | 11 to 100 | 1.01 to 10 | 100 to 1000
c1ccc(Cc2cnc(N3CCN(c4ncnc(Nc5cnn(CC6CNC6)c5)n4)CC3)nc2)cc1 [Compound 51] | 11 to 100 | < 1 | 10 to 100
OCCC1CN(c2ncnc(Nc3ccc4c(c3)CNCC4)n2)CCN1c1ncc(Cc2ccccc2)cn1 (stereo not drawn) [Compound 164] | < 10 | < 1 | < 10

Compound | IC50 (wild type Kit) [nM] | IC50 (D816V Kit) [nM] | IC50 [1] [nM]
Nc1cncc(Nc2ncnc(N3CCN(c4ncc(Cc5ccccc5)cn4)CC3)n2)c1 [Compound 13] | < 10 | < 1 | 10 to 100
CN1CCC[C@@H]1COc1ccc(Nc2ncnc(N3CCN(c4ncc(Cc5ccccc5)cn4)CC3)n2)cc1 [Compound 218] | < 10 | < 1 | 10 to 100
c1ccc(Cc2cnc(N3CCN(c4ncnc(Nc5cc[nH]n5)n4)CC3)nc2)cc1 [Compound 5] | 100 to 1000 | 1.01 to 10 | 1000 to 10000
c1ccc(Cc2cnc(N3CCN(c4ncnc(Nc5ccccc5)n4)CC3)nc2)cc1 [Compound 7] | 11 to 100 | 1.01 to 10 | 1000 to 10000
CN1CCO[C@H](Cn2cc(Nc3ncnc(N4CCN(c5ncc(Cc6ccccc6)cn5)CC4)n3)cn2)C1 [Compound 181] | < 10 | < 1 | 10 to 100
FC1(Cn2cc(Nc3ncnc(N4CCN(c5ncc(Cc6ccccc6)cn5)CC4)n3)cn2)CCNCC1 [Compound 191] | < 10 | < 1 | < 10
c1ccc(Cc2cnc(N3CCN(c4ncnc(Nc5cccc(N6CCOCC6)c5)n4)CC3)nc2)cc1 [Compound 104] | 11 to 100 | 1.01 to 10 | 100 to 1000
C[C@@H]1CN(c2ncnc(Nc3ccc(N4CCOCC4)cc3)n2)CCN1c1ncc(Cc2ccccc2)cn1 [Compound 159] | 11 to 100 | 1.01 to 10 | 100 to 1000
c1ccc(Cc2cnc(N3CCN(c4ncnc(Nc5ccc(OC[C@H]6CCCN6)cc5)n4)CC3)nc2)cc1 [Compound 169] | 11 to 100 | < 1 | 10 to 100
OCc1ccc(Nc2ncnc(N3CCN(c4ncc(Cc5ccccc5)cn4)CC3)n2)cc1 [Compound 16] | 11 to 100 | < 1 | 100 to 1000
OCC(O)Cn1cc(Nc2ncnc(N3CCN(c4ncc(Cc5ccccc5)cn4)CC3)n2)cn1 (stereo not drawn) [Compound 64, 3-(4-(4-(4-(5-benzylpyrimidin-2-yl)piperazin-1-yl)-1,3,5-triazin-2-ylamino)-1H-pyrazol-1-yl)propane-1,2-diol] | 11 to 100 | < 1 | 10 to 100
c1ccc(Nc2cnc(N3CCN(c4ncnc(Nc5ccc(N6CCOCC6)cc5)n4)CC3)nc2)cc1 [Compound 114] | 100 to 1000 | 1.01 to 10 | 100 to 1000
CC(O)c1cccc(Nc2ncnc(N3CCN(c4ncc(Cc5ccccc5)cn4)CC3)n2)c1 (stereo not drawn) [Compound 26] | 11 to 100 | 1.01 to 10 | 100 to 1000
NCc1cccc(Nc2ncnc(N3CCN(c4ncc(Cc5ccccc5)cn4)CC3)n2)c1 [Compound 14] | 11 to 100 | < 1 | 100 to 1000
CP(C)(=O)c1ccc(Nc2ncnc(N3CCN(c4ncc(Cc5ccccc5)cn4)CC3)n2)cc1 [Compound 89] | 11 to 100 | < 1 | 100 to 1000
c1ccc(Cc2cnc(N3CCN(c4ncnc(Nc5cnn(C[C@@H]6CCCN6)c5)n4)CC3)nc2)cc1 [Compound 85] | 11 to 100 | < 1 | 10 to 100
c1ccc(Cc2cnc(N3CCN(c4ncnc(Nc5cccc(O[C@@H]6CCNC6)c5)n4)CC3)nc2)cc1 [Compound 105] | 11 to 100 | < 1 | 100 to 1000
OC[C@@H]1CCCN1c1ccc(Nc2ncnc(N3CCN(c4ncc(Cc5ccccc5)cn4)CC3)n2)cc1 [Compound 168] | 11 to 100 | 1.01 to 10 | 10 to 100
Fc1ccccc1Cc1cnc(N2CCN(c3ncnc(Nc4ccc5c(c4)CNCC5)n3)CC2)nc1 [Compound 127] | < 10 | < 1 | 10 to 100
CS(=O)(=O)c1ccc(Nc2ncnc(N3CCN(c4ncc(Cc5ccccc5)cn4)CC3)n2)cc1 [Compound 94] | 11 to 100 | 1.01 to 10 | 10 to 100
FC(F)(F)CN1CCc2ccc(Nc3ncnc(N4CCN(c5ncc(Cc6ccccc6)cn5)CC4)n3)cc2C1 [Compound 268] | 100 to 1000 | 1.01 to 10 | 100 to 1000
CN1CCN(c2ccc(Nc3ncnc(N4CCN(c5ncc(Cc6ccccc6)cn5)CC4)n3)cc2)CC1 [Compound 156] | < 10 | < 1 | 10 to 100
